The values below come from patent US20090247558A1, “USE OF THE CRH (CORTICOTROPIN RELEASING HORMONE) - UCN (UROCORTIN) SYSTEM IN THE TREATMENT OF INFLAMMATORY DISEASES” (priority 2002, published 2009).

No end group written: not given here.

Experiment [1] concerns RAW264.7 cells. As to the kind of experiment: Stress kinase, Bax and Fas Ligand in RAW264.7 cells (Western blot). Format: cell-based, mouse. As for the experimental part:
Following stimulation cells were harvested and lyzed in 62.5 mM Tris HCl pH=6.8, 10% glycerol, 2% SDS, and freshly added inhibitors phenylmethylsulfonyl fluoride (10 μg/ml), 0.5 mM DTT and 50 mM Na2F.
A general note: A western blot detects proteins with antibodies after separation by electrophoresis.

Experiment [2] deals with primary bone marrow macrophages. As to the kind of experiment: Apoptosis of primary bone marrow macrophages. Type of experiment: cell-based. As for the experimental part: (§1) Cells were plated in 96-well plates at an initial concentration of 10,000 cells per well. Apoptosis was measured by direct determination of nucleosomal DNA fragmentation with the “cell death detection” ELISA plus kit according to the manufacturer's protocol.
(§2) Cells were treated with UCN and/or LPS at the indicated concentrations for different time points, collected in PBS and incubated with 7-amino-actinomycin (7AAD) for 10 minutes. Cells were washed and analyzed by Flow Cytometry (Coulter).

The test system of experiment [3] is RAW-264.7 macrophages. As to the kind of experiment: Apoptosis and proliferation of RAW264.7 macrophages (nucleosome formation, flow cytometry). Format: cell-based, mouse. As for the experimental part: as §1, §2
In experiment [4] the target is T1, CRH-R2 receptor (Mus musculus, UniProt Q60748).
T1 construct: monocyte/macrophage cells which express both the CRH-R1 and the CRH-R2 receptors on the surface; endogenous in cells; host or cells: macrophages
T1 sequence (Q60748 whole entry): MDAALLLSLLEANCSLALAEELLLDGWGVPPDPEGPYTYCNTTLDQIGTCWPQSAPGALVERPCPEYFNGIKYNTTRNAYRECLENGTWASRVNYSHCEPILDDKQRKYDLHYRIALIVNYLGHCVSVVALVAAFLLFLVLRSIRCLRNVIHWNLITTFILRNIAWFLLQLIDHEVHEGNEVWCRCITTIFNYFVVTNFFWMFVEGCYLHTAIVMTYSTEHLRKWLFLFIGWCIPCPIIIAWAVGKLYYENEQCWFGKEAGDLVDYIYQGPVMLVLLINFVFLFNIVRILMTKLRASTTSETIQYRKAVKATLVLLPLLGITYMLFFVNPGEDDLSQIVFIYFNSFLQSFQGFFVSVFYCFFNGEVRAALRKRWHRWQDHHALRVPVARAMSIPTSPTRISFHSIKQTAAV
Conditions: cited from earlier work.

As for “urocortin (DNPSLSIDLTFHLLRTLLELARTQSQRERAEQNRIIFDSV; ends and bridges not checked; UniProt P55089 83-122, looked up) [UCN]”, the “LPS-induced p38MAPK and JNK activation” value in experiment [1] (UCN plus LPS) is listed as “enhances”. For the same substance, in experiment [1] (UCN treatment), the Bax result is “upregulation”; the “Fas Ligand expression” value is given as “enhancement”; the “activation of the stress-induced kinases JNK and p38MAPK” value was “rapid activation”. In addition, the LPS-induced apoptosis result in experiment [2] is on record as “enhanced”. Also, in experiment [3] (cells cultured in the presence of serum), the cell proliferation result was “promoted cell proliferation”. Moreover, the apoptosis entry in experiment [3] (serum-deprived, LPS-induced cells, 10^−9M UCN, 10 μg/ml LPS) is given as “promoted apoptosis”. For the same substance, the apoptosis on macrophages result in experiment [4] is reported as “induce apoptosis”.
